Source: patent US5126258A (priority 1988, dated 1992)

What was measured:
[1] = Spontaneous (uncatalyzed, background) hydrolysis; assay type: physicochemical; conditions: for Spon. (spontaneous hydrolysis): pH 8.0, 50 mM phosphate, time (h): 17 2, 18 24, 20 0.33, 5 0.33, 22 3.5
How it was run: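 Background (uncatalyzed) hydrolysis of ester substrates measured in 50 mM phosphate buffer, pH 8.0, without antibody, as percentage of reactant consumed over the stated period. Quantified by C18 HPLC (acetonitrile/water with 0.1% trichloroacetic acid); Compounds 5 and 20 followed by fluorescence (ex 355 nm, em 455 nm).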

[2] = system: monoclonal receptor P3 6D4; assay: Stoichiometric transacylation reaction of monoclonal receptor P3 6D4 with coumarin ester Compound 5 (fluorescence) and its inhibition/inactivation; assay type: biochemical, mouse
How it was run: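 Antibody P3 6D4 (100 nM final) reacted at 23 °C with coumarin ester 5 in Tris-HCl or phosphate buffer (50 mM, pH 4–9), followed by fluorescence (ex 355/em 455 nm). Initial rates corrected for spontaneous hydrolysis; kinetic parameters from hyperbolic and double-reciprocal fits, Ki from Lineweaver-Burk with ≥5 inhibitor concentrations.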

[3] = system: twenty-eight monoclonal anti-hapten antibodies to phosphonate 2i; assay: Fluorescence assay of twenty-eight anti-phosphonate 2i antibodies with Compound 5; assay type: biochemical, mouse; conditions: pH 7.2
Protocol: A Perkin-Elmer LS-5 fluorescence spectrometer was operated at a fixed wavelength, using 355 nanometers (nm) for excitation and measuring the emission at 455 nm. A stock solution of the coumarin ester 5 was prepared in dioxane and was diluted to the desired concentrations in Tris-HCl (50 mM, pH 7) or sodium phosphate (50 mM, pH 4-9).
Reactions were run at 23 degrees C and were initiated by the addition of an aliquot of antibody solution (1 mg/ml) to substrate solutions to provide a final protein concentration of 100 nM. Final fluorescence values were determined by hydrolysis of the substrate with pig liver esterase. The observed reaction rate was corrected for spontaneous hydrolysis. […] Active protein concentration was extrapolated from fluorescence values at the end of the reaction. […] Inhibition constants were determined from the Lineweaver-Burk plot data with at least five inhibitor concentrations. […]
The practical range of pH for the assay is limited by the rapid spontaneous rate of hydrolysis of an ester Compound 5 above pH 8.0. […] Any change in fluorescence above background was noted.
In one study, twenty-eight monoclonal anti-hapten antibodies to phosphonate 2i from two separate fusion experiments were assayed. […] For two of these there was observed a fluorescence change, occurring in the first 5 minutes of incubation, which corresponds to about 50 percent of that for complete hydrolysis. […]

[4] = system: 1209; assay: Hydrolysis of reactant ligands by receptor 12C9 (column head prints 1209); assay type: biochemical, mouse; conditions: for hydrolysis by 1209: pH 8.0, receptor/ligand uM, time h: 17 1/10, 2, 18 2/10, 24, 20 2/10, 0.33, 5 1/5, 0.33, 22 5/10, 3.5, preliminary
Protocol: ^1 Preliminary initial hydrolyses shown as the percentage of admixed
reactant ligand consumed for catalyzed and spontaneous hydrolyses. "--" =
No hydrolysis observed. "NT" = Not tried. All reactions were carried out
at pH 8.0 in a 50 mM phosphate buffer unless otherwise noted. Hydrolytic
percentages were determined by HPLC using a Hitachi model 655A12 liquid
chromatograph with a C18 Vydac 201TP54 column, except as noted below.
Mixtures of acetonitrile a nd water containing 0.1 percent trichloroaceti
acid [28:72-50:50 (v/v)] were used as elutant. Hydrolyses of Compounds 5
and 20 were assayed using fluorescence data.
^2 Concentrations of receptor molecules (Rec.) and reactant ligands
(Lig.) in micromolar units, presuming a molecular weight of 150,000
daltons for each receptor molecule.
^3 Reactant ligand (Lig.) used as substrate.
^4 Time in hours that the reaction was permitted to take place.
^5 Spontaneous hydrolytic percentages for the time period indicated.
^6 Reaction carried out at pH 7.2 in a 50 mM phosphate buffer.

[5] = system: Monoclonal Receptor 22F5; assay: Kinetics of hydrolysis by receptor 22F5; assay type: biochemical, mouse
Source text: Reaction kinetics were studied using three reactant ligands as substrates for monoclonal receptors 37G2 and 22F5. Data from initial rates were consistent with Michaelis-Menten reaction mechanism for a usual enzyme-substrate system. Initial rates were followed using at 271 nm using a U.V.-visible spectorphotometer for Compound 17, and a fluorescence spectrometer for Compounds 5 and 20, using an excitation wavelength of 355 nm and an emission wavelength of 455 nm for both compounds.
Lineweaver-Burke plots for the catalyzed hydrolysis of Compounds 17, 5 and 20 obtained in the presence and absence of Compound 12i as inhibitor were prepared as discussed for FIG. 4. In particular, Compound 17 was present at concentrations of 1-16 uM with inhibitor concentrations of 100 and 300 nanomolar (nM). Compound 5 was present at concentrations of 1-10 uM with inhibitor concentrations of 100 and 200 nM. Compound 20 was present at concentrations of 2-20 uM with inhibitor concentrations of 25 and 100 nM.
*Fluorescence assays using Compounds 20 and 5 were carried out in a
PerkinElmer fluorescence spectrophotometer (moded LS5; Oakbrook, IL) usin
200 nanomolar receptor (based on a molecular weight of 150,000 daltons) i
50 mM phosphate buffer at a pH value of 8.0. The reactant ligand was
dissolved in dioxane and admixed in the amounts discussed above. Two
milliliters of reaction solution were utilized as was a dioxane
concentration of 2 percent by volume. […]

Structure (SMILES) | spontaneous rate of hydrolysis ([1]; above pH 8.0) | Spon. (spontaneous hydrolysis) [1] | inactivation of receptor [2] | stoichiometry, mole of ester per mole of combining sites ([2]; IgG molecular weight 150,000 assumed) | rate change pH 8.0 versus pH 7.0 ([2]; preliminary) | reactivity with Compound 5 in fluorescence assay [3] | hydrolysis by 1209 [4] | Km ([5]; 50 mM phosphate pH 8.0, 200 nM receptor, 2% dioxane, figure = Km × 10^6) [µM] | kcat ([5]; pH 8.0) [s⁻¹] | Vmax ([5]; pH 8.0, 200 nM receptor, figure = Vmax × 10^9) [µM/min] | Spon. (spontaneous hydrolysis), pH 7.2 ([1]; pH 7.2, 50 mM phosphate, 2 h) | hydrolysis by 1209, pH 7.2 ([4]; pH 7.2, 1 uM receptor, 10 uM ligand, 2 h)
O=C(Cc1ccc(NC(=O)C(F)(F)F)cc1)Oc1ccc2ccc(=O)oc2c1 [Compound 5] | rapid | 5 percentage of reactant ligand | specific inactivator | one | modest rate increase | None of these were reactive | 11 percentage of reactant ligand | 1.4 | 0.0022 | 0.0912 |  | 
CC(=O)Nc1ccc(CC(=O)Oc2cccc3ccccc23)cc1 [Compound 17] |  | 7 percentage of reactant ligand |  |  |  |  | 55 percentage of reactant ligand |  |  |  | 4 percentage of reactant ligand | 35 percentage of reactant ligand
